Assays:
[1] = test system: organophosphorous agent resistant two-spotted spider mites; assay: Effect on Two-spotted Spider Mite (spray on kidney bean leaves); type: in vivo; details: 125 ppm, water dispersible powder of Formulation Example 1 sprayed, 17 female adults, 25° C., 65% humidity, 3 days
In short: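 Kidney bean first leaves bearing 17 adult female organophosphate-resistant mites were sprayed with a water-dispersible powder formulation at 125 ppm. Held 3 days at 25 °C, 65% humidity, then adult mortality scored; run in duplicate.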

[2] = test system: acaricide resistant citrus red mites; assay: Effect on Citrus Red Mite (spray on mandarin orange leaves); type: in vivo; details: 31 ppm, emulsifiable concentrate of Formulation Example 2 sprayed, 10 female adults, 25° C., 65% humidity
Procedure: Effect on Citrus Red Mite
10 female adults of acaricide resistant citrus red mites were inoculated onto leaves of a mandarin orange placed on dishes, onto which each of liquid agents, diluted with water so as to adjust the respective concentration of the chemical compounds to 31 ppm according to the formulation of the emulsifiable concentrate shown in the aforementioned Formulation Example 2, was sprayed by using a rotating sparge tower. After they were left in a thermostatic chamber at 25° C. in 65% humidity for 3 days, and were then removed from the dishes, eggs laid for 3 days were investigated whether they could grow to adults or not on the eleventh day. As the results, the following chemical compounds killed 100% of the adults. 1-13, 1-15, 1-22, 1-27, 1-45, 1-54, 1-59, 1-63, 1-66, 1-69, 1-71, 1-72, 1-75, 1-80, 1-88, 1-89, 1-92, 1-93, 1-94, 1-97, 1-98, 1-100, 1-102, 1-105, 1-108, 1-133, 1-136, 1-142, 1-153, 1-181, 1-183, 1-186, 1-187, 1-188, 1-189, 1-190, 1-191,

CCOCc1cc(C(F)(F)F)ccc1OC1CCN(c2ccc(C(F)(F)F)cn2)CC1 [1-66]
rate of killed adults [1]: 100%
killed ... of the adults (eggs laid for 3 days investigated whether they could grow to adults on the eleventh day) [2]: 100%

CCOc1cc(C(F)(F)F)ccc1OC1CCN(c2ccc(C(F)(F)F)cn2)CC1 [1-89]
rate of killed adults [1]: 100%
killed ... of the adults (eggs laid for 3 days investigated whether they could grow to adults on the eleventh day) [2]: 100%

CC1CNC(c2cc(C(F)(F)F)ccc2O[C@@H]2[C@@H]3CC[C@H]2CN(c2ccc(C(F)(F)F)cn2)C3)O1 (stereo partly drawn) [5-260]
rate of killed adults [1]: 100%
killed ... of the adults (eggs laid for 3 days investigated whether they could grow to adults on the eleventh day) [2]: 100%

CC(C)(C)OC(=O)c1cc(C(F)(F)F)ccc1O[C@@H]1[C@@H]2CC[C@H]1CN(c1ccc(C(F)(F)F)cn1)C2 [5-257]
rate of killed adults [1]: 100%
killed ... of the adults (eggs laid for 3 days investigated whether they could grow to adults on the eleventh day) [2]: 100%

COCOc1cc(C(F)(F)F)ccc1OC1C2CCCC1CN(c1ccc(C(F)(F)F)cn1)C2 (stereo not drawn) [7-100, 9β-[2-methoxymethoxy-4-(trifluoromethyl)phenoxy]-3-[5-(trifluoromethyl)-2-pyridyl]-3-azabicyclo[3.3.1]nonane]
rate of killed adults [1]: 100%
killed ... of the adults (eggs laid for 3 days investigated whether they could grow to adults on the eleventh day) [2]: 100%

CCCOc1cc(C(F)(F)F)ccc1OC1C2CCC1CN(c1ccc(C(F)(F)F)cn1)C2 (stereo not drawn) [5-97, 8β-[2-propoxy-4-(trifluoromethyl)phenoxy]-3-[5-(trifluoromethyl)-2-pyridyl]-3-azabicyclo[3.2.1]octane]
rate of killed adults [1]: 100%
killed ... of the adults (eggs laid for 3 days investigated whether they could grow to adults on the eleventh day) [2]: 100%

CC(C#N)OCc1cc(C(F)(F)F)ccc1OC1C2CCC1CN(c1ccc(C(F)(F)F)cn1)C2 (stereo not drawn) [5-230]
rate of killed adults [1]: 100%
killed ... of the adults (eggs laid for 3 days investigated whether they could grow to adults on the eleventh day) [2]: 100%

CCOc1cc(C(F)(F)F)ccc1O[C@@H]1[C@@H]2CC[C@H]1CN(c1ccc(C(F)(F)F)cn1)C2 [5-90]
rate of killed adults [1]: 100%
killed ... of the adults (eggs laid for 3 days investigated whether they could grow to adults on the eleventh day) [2]: 100%

CCOC(=O)c1cc(C(F)(F)F)ccc1OC1C2CCC1CN(c1ccc(C(F)(F)F)cn1)C2 (stereo not drawn) [5-233]
rate of killed adults [1]: 100%
killed ... of the adults (eggs laid for 3 days investigated whether they could grow to adults on the eleventh day) [2]: 100%

COCOC(C)c1cc(C(F)(F)F)ccc1O[C@@H]1[C@@H]2CC[C@H]1CN(c1ccc(C(F)(F)F)cn1)C2 (stereo partly drawn) [5-73]
rate of killed adults [1]: 100%
killed ... of the adults (eggs laid for 3 days investigated whether they could grow to adults on the eleventh day) [2]: 100%

COCOc1cc(C(F)(F)F)ccc1O[C@@H]1[C@@H]2CC[C@H]1CN(c1ccc(C(F)(F)F)cn1)C2 [5-110]
rate of killed adults [1]: 100%
killed ... of the adults (eggs laid for 3 days investigated whether they could grow to adults on the eleventh day) [2]: 100%

C#CCOc1cc(C(F)(F)F)ccc1OC1C2CCC1CN(c1ccc(C(F)(F)F)cn1)C2 (stereo not drawn) [5-177]
rate of killed adults [1]: 100%
killed ... of the adults (eggs laid for 3 days investigated whether they could grow to adults on the eleventh day) [2]: 100%

N#Cc1ccc(N2C[C@H]3CC[C@@H](C2)[C@@H]3Oc2ccc(C(F)(F)F)cc2OCC2CC2)nc1 [5-120]
rate of killed adults [1]: 100%
killed ... of the adults (eggs laid for 3 days investigated whether they could grow to adults on the eleventh day) [2]: 100%

CCCC(O)c1cc(C(F)(F)F)ccc1OC1C2CCC1CN(c1ccc(C(F)(F)F)cn1)C2 (stereo not drawn) [5-227]
rate of killed adults [1]: 100%
killed ... of the adults (eggs laid for 3 days investigated whether they could grow to adults on the eleventh day) [2]: 100%

CC1COC(c2cc(C(F)(F)F)ccc2O[C@@H]2[C@@H]3CC[C@H]2CN(c2ccc(C(F)(F)F)cn2)C3)N1 (stereo partly drawn) [5-259]
rate of killed adults [1]: 100%
killed ... of the adults (eggs laid for 3 days investigated whether they could grow to adults on the eleventh day) [2]: 100%

COc1cc(C(F)(F)F)ccc1OC1CCN(c2ccc(C(F)(F)F)cn2)CC1 [1-88]
rate of killed adults [1]: 100%
killed ... of the adults (eggs laid for 3 days investigated whether they could grow to adults on the eleventh day) [2]: 100%

CCCOc1cc(C(F)(F)F)ccc1OC1C2CCCC1CN(c1ccc(C(F)(F)F)cn1)C2 (stereo not drawn) [7-82, 90-[2-propoxy-4-(trifluoromethyl)phenoxy]-3-[5-(trifluoromethyl)-2-pyridyl]-3-azabicyclo[3.3.1]nonane]
rate of killed adults [1]: 100%
killed ... of the adults (eggs laid for 3 days investigated whether they could grow to adults on the eleventh day) [2]: 100%

CC=CCOc1cc(C(F)(F)F)ccc1OC1C2CCC1CN(c1ccc(C(F)(F)F)cn1)C2 (mixture of isomers) [5-175]
rate of killed adults [1]: 100%
killed ... of the adults (eggs laid for 3 days investigated whether they could grow to adults on the eleventh day) [2]: 100%

CC(C)Oc1cc(C(F)(F)F)ccc1OC1CCN(c2ccc(C(F)(F)F)cn2)CC1 [1-100]
rate of killed adults [1]: 100%
killed ... of the adults (eggs laid for 3 days investigated whether they could grow to adults on the eleventh day) [2]: 100%

FC(F)(F)c1ccc(N2C[C@H]3CCC[C@@H](C2)[C@@H]3Oc2ccc(C(F)(F)F)cc2OCC2CC2)nc1 [7-103]
rate of killed adults [1]: 100%
killed ... of the adults (eggs laid for 3 days investigated whether they could grow to adults on the eleventh day) [2]: 100%

FC(F)(F)c1ccc(N2CC3CCC(C2)C3Oc2ccc(C(F)(F)F)cc2C2C=CCO2)nc1 (stereo not drawn) [5-236]
rate of killed adults [1]: 100%
killed ... of the adults (eggs laid for 3 days investigated whether they could grow to adults on the eleventh day) [2]: 100%

C=CCOc1cc(C(F)(F)F)ccc1OC1C2CCC1CN(c1ccc(C(F)(F)F)cn1)C2 (stereo not drawn) [5-149]
rate of killed adults [1]: 100%
killed ... of the adults (eggs laid for 3 days investigated whether they could grow to adults on the eleventh day) [2]: 100%

FC(F)(F)c1ccc(N2C[C@H]3CC[C@@H](C2)[C@@H]3Oc2ccc(C(F)(F)F)cc2Br)nc1 [5-22]
rate of killed adults [1]: 100%
killed ... of the adults (eggs laid for 3 days investigated whether they could grow to adults on the eleventh day) [2]: 100%

FC(F)(F)c1ccc(N2CC3CCC(C2)C3Oc2ccc(C(F)(F)F)cc2OCC2OCCO2)nc1 (stereo not drawn) [5-203]
rate of killed adults [1]: 100%
killed ... of the adults (eggs laid for 3 days investigated whether they could grow to adults on the eleventh day) [2]: 100%

CC(C)OCc1cc(C(F)(F)F)ccc1OC1C2CCC1CN(c1ccc(C(F)(F)F)cn1)C2 (stereo not drawn) [5-225]
rate of killed adults [1]: 100%
killed ... of the adults (eggs laid for 3 days investigated whether they could grow to adults on the eleventh day) [2]: 100%

C=CCOc1cc(C(F)(F)F)ccc1OC1CCN(c2ccc(C(F)(F)F)cn2)CC1 [1-142]
rate of killed adults [1]: 100%
killed ... of the adults (eggs laid for 3 days investigated whether they could grow to adults on the eleventh day) [2]: 100%

CC(C)COc1cc(C(F)(F)F)ccc1O[C@@H]1[C@@H]2CC[C@H]1CN(c1ccc(C(F)(F)F)cn1)C2 [5-105]
rate of killed adults [1]: 100%
killed ... of the adults (eggs laid for 3 days investigated whether they could grow to adults on the eleventh day) [2]: 100%

FC(F)(F)c1ccc(N2C[C@H]3CC[C@@H](C2)[C@@H]3Oc2ccc(C(F)(F)F)cc2OCC2CC2)nc1 [5-116]
rate of killed adults [1]: 100%
killed ... of the adults (eggs laid for 3 days investigated whether they could grow to adults on the eleventh day) [2]: 100%

CCCOc1cc(C(F)(F)F)ccc1OC1CCN(c2ccc(C(F)(F)F)cn2)CC1 [1-92]
rate of killed adults [1]: 100%
killed ... of the adults (eggs laid for 3 days investigated whether they could grow to adults on the eleventh day) [2]: 100%

FC(F)(F)c1ccc(N2CC3CCC(C2)C3Oc2ccc(C(F)(F)F)cc2C2OCCO2)nc1 (stereo not drawn) [5-215]
rate of killed adults [1]: 100%
killed ... of the adults (eggs laid for 3 days investigated whether they could grow to adults on the eleventh day) [2]: 100%

COCCOc1cc(C(F)(F)F)ccc1O[C@@H]1[C@@H]2CC[C@H]1CN(c1ccc(C(F)(F)F)cn1)C2 [5-124]
rate of killed adults [1]: 100%
killed ... of the adults (eggs laid for 3 days investigated whether they could grow to adults on the eleventh day) [2]: 100%

COC(=O)c1cc(C(F)(F)F)ccc1O[C@@H]1[C@@H]2CC[C@H]1CN(c1ccc(C(F)(F)F)cn1)C2 [5-243]
rate of killed adults [1]: 100%
killed ... of the adults (eggs laid for 3 days investigated whether they could grow to adults on the eleventh day) [2]: 100%

COCOc1cc(C(F)(F)F)ccc1O[C@@H]1[C@@H]2CC[C@H]1CN(c1ccc(C#N)cn1)C2 [5-111]
rate of killed adults [1]: 100%
killed ... of the adults (eggs laid for 3 days investigated whether they could grow to adults on the eleventh day) [2]: 100%

Cc1noc(-c2cc(C(F)(F)F)ccc2O[C@@H]2[C@@H]3CC[C@H]2CN(c2ccc(C(F)(F)F)cn2)C3)n1 [5-256]
rate of killed adults [1]: 100%
killed ... of the adults (eggs laid for 3 days investigated whether they could grow to adults on the eleventh day) [2]: 100%

CCCOc1cc(C(F)(F)F)ccc1OC1CCN(c2ccc(C(F)(F)F)cn2)CC1CC (stereo not drawn) [1-186]
rate of killed adults [1]: 100%
killed ... of the adults (eggs laid for 3 days investigated whether they could grow to adults on the eleventh day) [2]: 100%

CC1(C)COC(c2cc(C(F)(F)F)ccc2O[C@@H]2[C@@H]3CC[C@H]2CN(c2ccc(C(F)(F)F)cn2)C3)N1 (stereo partly drawn) [5-262]
rate of killed adults [1]: 100%
killed ... of the adults (eggs laid for 3 days investigated whether they could grow to adults on the eleventh day) [2]: 100%
